Measurements from patent US8415106B2, “Cell-based screen for agents useful for reducing neuronal demyelination or promoting neuronal remyelination” (Myelin Repair Foundation, Inc., priority 2005, dated 2013).

Legend:
[1] = test system: myelin basic protein (MBP); test: Hippocampal organotypic cultures (HOC), in vitro model of myelination, MBP Western blot; type: cell-based; conditions: 7 days
Protocol: HOCs, were prepared and maintained as described previously (Kunkler and Kraig (1997) J Cereb Blood Flow Metab. 17:26-43), and were maintained in vitro for 7 days before use. SAL at various concentrations was combined with 100 U/ml IFN-γ and added to the HOC cultures for 7 days. […] After 7 days of 100 U/ml IFN-γ exposure, the levels of MBP decreased approximately 80% in the HOCs (FIG. 29).

PP1-GADD34 phosphatase = conditions: Boyce, et al. (2005) Science 307:935-939; cited from earlier work

## O=C(/C=C/c1ccccc1)NC(NC(=S)Nc1cccc2cccnc12)C(Cl)(Cl)Cl (stereo not drawn) [SAL, salubrinal]
[1]; SAL at various concentrations combined with 100 U/ml IFN-γ
  reduction of MBP expression elicited by IFN-γ exposure: markedly attenuated
[1]; SAL treatment alone
  MBP expression: did not affect MBP expression
PP1-GADD34 phosphatase
  PP1-GADD34 phosphatase activity: specifically inhibits the PP1-GADD34 phosphatase activity
